Data as given in US5554653A, “Inhibitors of HIV protease useful for the treatment of AIDS” (Eli Lilly and Company, priority 1992, dated 1996).
≈ marks a conversion by molar mass, not a printed value.

biological target: T1, HIV-1 protease (Human immunodeficiency virus type 1 group M subtype B, UniProt P04585); test: biochemical; type: biochemical; details: read-out: Fluorescence Assay IC3
T1 construct: Purified HIV-1 protease was obtained as described above; made in house; host or cells: E. coli K12 L507/pHP10D (NRRL B-18560)
Protocol: C. Preparation of Protease Fraction
A culture of E. coli K12 L507/pHP10D was grown to mid-log phase at 32° C. in LB media containing 12.5 μg/ml tetracycline. The cultivation temperature was quickly elevated to 40° C. to induce gene expression, and the cells were allowed to grow for 2.5 hours at this temperature before the culture was quickly chilled on ice. The cells were centrifuged and the cell pellet was resuspended in 20 mL 50 mmol MES buffer (pH 6.0) containing 1 mmol EDTA, 1 mmol DTT, 1 mmol PMSF and 10% glycerol ("Buffer A"). Cells were lysed by sonication using a Fischer Model 300 Dismembrator and a microtip probe. Following centrifugation at 27,000×g, the supernatant was diluted to a total volume of 60 mL with Buffer A and loaded onto a 2.0×19 cm QAE-Sepharose column (1 mL/min, 4° C.), that had been equilibrated in Buffer A. The column was washed isocratically for 180 min and then eluted with a gradient eluent of 0-1.0M sodium chloride in Buffer A over 120 min. Enzymatic activity was measured by HPLC using the synthetic peptide SQNYPIV as described in Margolin et al., Biochem. Biophys. Res. Commun., 167, 554-560 (1990); the production of the p1 peptide (SQNY) was measured.
The active fractions were combined, made 1.2M in ammonium sulfate, and applied to a 2.0×18 cm hexyl agarose column that had been equilibrated in Buffer A containing 1.2M ammonium sulfate. The sample was loaded at a flow rate of 1 mL/min at 4° C., washed with the equilibration buffer for 240 min (1 mL/min) and then eluted using a reverse linear gradient of 1.2-0M ammonium sulfate in Buffer A for 120 min at the same flow rate. The column was then washed isocratically in Buffer A for 120 min.
The active fractions were combined, concentrated to 10 mL using an Amicon stirred cell with a YM-10 membrane and then applied to a MonoS cation exchange column (1.0×10 cm) that had been equilibrated in Buffer A. The sample was loaded at a flow rate of 1 mL/min at 25° C. After washing isocratically for 30 min, the protease was eluted using a linear gradient of 0-0.45M sodium chloride in Buffer A over 40 min. The column was washed isocratically in Buffer A containing 0.45M sodium chloride for 30 min.
The active fractions were combined and concentrated to 200 μL using an Amicon stirred cell and a YM-10 membrane and then the protease was applied to a Superose 6 size exclusion column equilibrated in Buffer A containing 0.1M sodium chloride.
The purified peptide was labeled with a fluorescent marker at the C-terminal end for use in the Pandex assay. N^α -Biotin-[…]OH SEQ ID NO:3. (1.206 g, 0.936 mmol) was dissolved in 100 mL of 0.1M sodium borate, pH 9.5. Then, a solution of 3 g (7.7 mmol) of fluorescein isothiocyanate in 15 mL dimethyl sulfoxide was added to the reaction mixture in 10 equal portions over two hours. The resulting mixture was allowed to react for one hour after the final addition. The solution was adjusted to pH 3 using 5N hydrochloric acid, resulting in the formation of a precipitate which was removed by centrifugation.
E. Fluorescence HIV-1 Protease Inhibitor Assay
The following buffers and solutions are used in the Fluorescence HIV-1 Protease Inhibitor Assay:
MES-ALB Buffer: 0.05M 4-morpholineethane
Avidin Coated 0.1% solution of Fluoricon
Beads Solution: Avidin Assay Particles
(Avidin conjugated to solid
polystyrene beads, 0.6-0.8
microns in diameter in TBSA
27 IU/mL of purified HIV-1
protease in MES-ALB buffer
(1 IU equals the amount of
enzyme required to hydrolyze
1 μmole of substrate per
To each well of a round bottom, 96-well plate is added 20 μL of the Enzyme Solution followed by 10 μL of the compound to be evaluated in a 20% aqueous dimethylsulfoxide solution. Purified HIV-1 protease was obtained as described above.

Compound | IC3 [µg/mL]
CC(C)(C)NC(=O)c1ccccc1C[C@@H](O)[C@H](Cc1ccccc1)NC(=O)[C@H](N)CSc1ccccc1 [Example 22B, [2R-(2R*,3S*,6S*)]-N-t-Butyl-2-[2-hydroxy-3-phenylmethyl-4-aza-5-oxo-6-amino-7-phenylthio]heptyl benzamide] | 1

same assay, conditions: read-out: Fluorescence Assay IC8

Compound | IC8 [µg/mL]
CC(C)(C)NC(=O)c1ccccc1C[C@@H](O)[C@H](Cc1ccccc1)NC(=O)[C@H](CC(=O)OCc1ccccc1)NC(=O)OC(C)(C)C [Example 31A, [2R-(2R*,3S*,6S*)]-N-t-Butyl-2-[2-hydroxy-3-phenylmethyl-4-aza-5-oxo-6-N(t-butoxycarbonyl)amino-7-benzyloxycarbonyl]heptyl benzamide] | 1

same assay, conditions: read-out: Fluorescence Assay IC45

Compound | IC45 [µg/mL]
CC(=O)N[C@H](Cc1ccccc1)C(=O)N[C@@H](Cc1ccccc1)[C@H](O)Cc1ccccc1C(=O)NC(C)(C)C [Example 26, [2R-(2R*,3S*,6R*)]-N-t-Butyl-2-[2-hydroxy-3-phenylmethyl-4-aza-5-oxo-6-N-(ethanoyl)amino-7-phenyl]heptyl benzamide] | 1 (≈ 1.89 µM)

same assay, conditions: read-out: Fluorescence Assay IC50 (converted)

Compound | IC50 [nM]
CC(=O)N[C@H](Cc1c[nH]c2ccccc12)C(=O)N[C@@H](Cc1ccccc1)[C@H](O)Cc1ccccc1C(=O)NC(C)(C)C [Example 25, [2R-(2R*,3S*,6R*)]-N-t-Butyl-2-[2-hydroxy-3-phenylmethyl-4-aza-5-oxo-6-N-(ethanoyl)amino-7-indol-3-yl]heptyl benzamide] | > 1760
CC(C)(C)NC(=O)c1ccccc1C[C@@H](O)[C@H](Cc1ccccc1)NC(=O)[C@@H](CSc1ccc2ccccc2c1)NC(=O)OC(C)(C)C [Example 15A, [2R-(2R*,3S*,6S*)]-N-t-Butyl-2-[2-hydroxy-3-phenylmethyl-4-aza-5-oxo-6-N(t-butoxycarbonyl)amino-7-naphth-2-ylthio]heptyl benzamide] | > 1490
CC(C)(C)NC(=O)c1ccccc1C[C@@H](O)[C@H](Cc1ccccc1)NC(=O)[C@H](CC(N)=O)NS(=O)(=O)CCc1cccc2ccccc12 [Example 35, [2R-(2R*,3S*,6S*)]-N-t-Butyl-2-[2-hydroxy-3-phenylmethyl-4-aza-5-oxo-6-N (naphth-1-ylethylsulfonyl)amino-7-carbamoyl]heptyl benzamide] | 1.04
CC(C)(C)NC(=O)c1ccccc1C[C@@H](O)[C@H](Cc1ccccc1)NC(=O)[C@H](CC(N)=O)NS(=O)(=O)c1ccccn1 [Example 29C, [2R-(2R*,3S*,6S*)]-N-t-Butyl-2-[2-hydroxy-3-phenylmethyl-4-aza-5-oxo-6-N(pyrid-2-ylsulfonyl)amino-7-carbamoyl]heptyl benzamide] | 371
CC(=O)N[C@H](CC(=O)NCc1ccccn1)C(=O)N[C@@H](Cc1ccccc1)[C@H](O)Cc1ccccc1C(=O)NC(C)(C)C [Example 2, [2R-(2R*, 3S*, 6R*)]-N-t-Butyl-2-[2-hydroxy-3-phenylmethyl-4-aza-5-oxo-6-N(ethanoyl)amino-8-oxo-9-aza-10-pyrid-2-yl]decyl benzamide] | 451
CC(C)(C)NC(=O)c1ccccc1C[C@@H](O)[C@H](Cc1ccccc1)NC(=O)[C@@H](C[S+]([O-])c1ccc(F)cc1)NS(C)(=O)=O (stereo partly drawn) [Example 37D, [2R-(2R*,3S*,6S*)]-N-t-Butyl-2-[2-hydroxy-3-phenylmethyl-4-aza-5-oxo-6-N(methylsulfonyl)amino-7-(p-fluorophenylsulfinyl)]heptyl benzamide] | 0.158
CC(=O)N[C@H](C[S+]([O-])c1ccc2ccccc2n1)C(=O)N[C@@H](Cc1ccccc1)[C@H](O)Cc1ccccc1C(=O)NC(C)(C)C (stereo partly drawn) [Example 24B, [2R-(2R*,3S*,6S*)]-N-t-Butyl-2-[2-hydroxy-3-phenylmethyl-4-aza-5-oxo-6-N(ethanoyl)amino-7-quinolin-2-ylsulfinyl]heptyl benzamide] | 0.207
CC(=O)N[C@H](CS(=O)(=O)Cc1ccccc1)C(=O)N[C@@H](Cc1ccccc1)[C@H](O)Cc1ccccc1C(=O)NC(C)(C)C [Example 18B, [2R-(2R*, 3S*, 6S*)]-N-t-Butyl-2-[2-hydroxy-3-phenylmethyl-4-aza-5-oxo-6-N(ethanoyl)amino-7-benzylsulfonyl]heptyl benzamide] | 55.9
CC(=O)N[C@H](CC(=O)NCc1ccccc1)C(=O)N[C@@H](Cc1ccccc1)[C@H](O)Cc1ccccc1C(=O)NC(C)(C)C [Example 4, [2R-(2R*, 3S*, 6R *]-N-t-butyl-2-[2-hydroxy-3-phenylmethyl-4-aza-5-oxo-6-N (ethanoyl)amino-8-oxo-9-aza-10-phenyl]decylbenzamide] | 341
CC(C)(C)NC(=O)c1ccccc1C[C@@H](O)[C@H](Cc1ccccc1)NC(=O)[C@@H](CSc1ccc(F)cc1)NS(C)(=O)=O [Example 37C, [2R-(2R*,3S*,6S*)]-N-t-Butyl-2-[2-hydroxy-3-phenylmethyl-4-aza-5-oxo-6-N(methylsulfonyl)amino-7-(p-fluorophenylthio)]heptyl benzamide] | 1.79
CC(C)(C)NC(=O)c1ccccc1C[C@@H](O)[C@H](Cc1ccccc1)NC(=O)[C@@H](CSc1ccc2ccccc2c1)NS(C)(=O)=O [Example 17A, [2R-(2R*, 3S*, 6S*)]-N-t-Butyl-2-[2-hydroxy-3-phenylmethyl-4-aza-5-oxo-6-N (methylsulfonyl)amine-7-naphth-2-ylthio]heptyl benzamide] | 1.1
Cn1nnnc1SC[C@@H](NC(=O)OC(C)(C)C)C(=O)N[C@@H](Cc1ccccc1)[C@H](O)Cc1ccccc1C(=O)NC(C)(C)C [Example 39A, [2R-(2R*,3S*,6S*)]-N-t-Butyl-2-[2-hydroxy-3-phenylmethyl-4-aza-5-oxo-6-N(t-butoxycarbonyl)amino-7-N-(methyl)tetrazolylthio]heptyl benzamide] | > 1600
CC(C)(C)NC(=O)c1ccccc1C[C@@H](O)[C@H](Cc1ccccc1)NC(=O)[C@@H](CSCc1ccccc1)NS(C)(=O)=O [Example 19C, [2R-(2R*,3S*,6S*)]-N-t-Butyl-2-[2-hydroxy-3-phenylmethylyl-4-aza-5-oxo-6-N(methylsulfonyl)amino-7-benzylthio]heptyl benzamide] | 3.6
CCC(=O)N[C@H](CC(=O)OCc1ccccc1)C(=O)N[C@@H](Cc1ccccc1)[C@H](O)Cc1ccccc1C(=O)NC(C)(C)C [Example 6, [2R-(2R*,3S*,6R*)]-N-t-butyl-2-[2-hydroxy-3-phenylmethyl-4-aza-5-oxo-6-N(propanoyl)amino-7-benzyloxycarbonyl]heptyl benzamide] | 26.6
CC(=O)N[C@H](CSc1ccc2ccccc2c1)C(=O)N[C@@H](Cc1ccccc1)[C@H](O)Cc1ccccc1C(=O)NC(C)(C)C [Example 16A, [2R-(2R*, 3S*, 6S*)]-N-t-Butyl-2-[2-hydroxy-3-phenylmethyl-4-aza-5-oxo-6-N (ethanoyl)amino-7-naphth-2-ylthio]heptyl benzamide] | 10.6
CC(C)(C)NC(=O)c1ccccc1C[C@@H](O)[C@H](Cc1ccccc1)NC(=O)[C@H](N)CSc1ccc2ccccc2c1 [Example 15B, [2R-(2R*,3S*,6S*)]-N-t-Butyl-2-[2-hydroxy-3-phenylmethyl-4-aza-5-oxo-6-amino-7-naphth-2-ylthio]heptyl benzamide] | 223

same assay, conditions: read-out: Fluorescence Assay IC52

Compound | IC52 [µg/mL]
CC(C)(C)NC(=O)c1ccccc1C[C@@H](O)[C@H](Cc1ccccc1)NC(=O)[C@H](CC(=O)OCc1ccccc1)NC(=O)C(F)(F)F [Example 41, [2R-(2R*,3S*,6S*)]-N-t-Butyl-2-[2-hydroxy-3-phenylmethyl-4-aza-5-oxo-6-N(trifluoromethylcarbonyl)amino-7-benzyloxycarbonyl]heptyl benzamide] | 0.02
